Test results published in US12133486B2, “Methods of propagation of arbuscular mycorrhizal fungi (AMF) and uses thereof” (Terra Microbes, LLC, priority 2021, dated 2024).

System: AM fungi
Assay: Field plot study: AMF spore counts in soil around western wheatgrass roots
Type: in vivo
Settings: field plots; for Total Spores t = 47 days / Total Spores t = 0 days: mean n = 3, P added at 120 kg/ha (KCl: same K); for Total Spores t = 47 days / spore numbers compared with the control: second sampling; for Total Spores t = 0 days: t = 0 = first sampling, 14 days after treatment; for spore numbers compared with the control: t = 47
From the text: Twelve plots of size 50 cm by 50 cm were established on a homogenous site 2.54 meters (running northeast and southwest) by 4.06 meters (running southeast and northwest). Plant distribution was mostly homogeneous across the entire site, with western wheatgrass dominant. The plots were in four rows with three plots in each row. Within a row plots were 25 cm apart. Rows were 50 cm apart. An experimental unit was one plot. Treatments were replicated three times. Treatments included: controls (no treatment), potassium chloride treatment, potassium phosphate treatment, and potassium phosphite treatment. (See, FIG. 2).
In this study phosphorus, either as phosphate or phosphite, was added at a rate of 120 kg of P per hectare (ha). Scaled down this equates to 3 grams of phosphorous per plot. One ha is 10,000 m^2. Each plot is 50 cm by 50 cm, or 0.25 m^2. The subsequent calculation then is 120 Kg/10,000 m^2=X/0.25 m^2; X=3.00 grams of P per plot. (See Table 2).
Treatments: All plots received the same amount of solution. The control plots were treated with distilled water only (6.375 L). The KCl plots treated with distilled water containing the same amount of K as was needed to convert the phosphorous acid (H3PO3) to dipotassium phosphite (K2HPO3). The phosphate plots were treated with sufficient dipotassium phosphate (K2HPO4) to deliver 3 g of P per plot dissolved in the same amount of distilled water as the control plots received and the KCl plots received. The phosphite plots were treated with sufficient dipotassium phosphite (K2HPO3) to deliver 3 g of P per plot dissolved in the same amount of distilled water as the control plots received, the KCl plots received and the phosphate plots received.
The field experiment reported in this example was conducted during June through October. Plots were established during early June and treated on the 15th and 16th day (as in Example 3 above). The first soil and root sampling was performed 14 days later (t=14). The second set of samples were taken 47 days later (t=61), and the third set 60 days later (t=121 days). Sample size and depth was as detailed above in Example 3.
AMF spores were evaluated in soil samples from which plant roots including plant roots of western wheatgrass had existed and had been removed. Evaluations were performed on the T=0 and the T=47 samples. These evaluations generally entailed mixing the sample with water, centrifugation, and decanting water. This step was performed to remove light organic matter and other light materials, e.g., leaf fragments. This was followed by mixing the soil with a solution of sodium hexametaphosphate (2%) in 2 M sucrose. Centrifugation results in the spores floating on the sucrose solution or suspended in it. The sucrose solution plus spores is decanted into a separatory funnel. The suspension was allowed to exit the funnel one drop at a time. The spores adhere to the inside of the funnel and once all liquid has exited the funnel the spores are washed into a petri-dish and counted under a dissecting microscope.
The specific protocol for spore extraction was as follows: • A) Weigh 5 g of air dried soil into a 20 ml centrifuge tube. For a complete sample this is replicated four times. • B) Fill each tube with water to ˜1.5 cm of the top. Stir to suspend organic matter and other light debris. Let all tubes stand for 10 minutes. • C) Centrifuge at 2000 rpm (475.2×g) for 10 minutes. Be sure tubes are placed across from each other in the centrifuge and are within 0.1 g of the same weight. • D) Pour off and discard supernatant while stirring surface and rotating tube. • E) If much organic matter and other light material remains, repeat steps B through D. • F) Add sucrose/sodium hexametaphosphate solution (2 molar sucrose containing 2% hexametaphosphate: 684.6 g of sucrose (store grade is adequate) and 20 g of sodium hexametaphosphate in one liter of solution using distilled water) to centrifuge tubes to ˜1.5 cm of top. […]

SMILES | Total Spores t = 47 days [Ab Per 100 g soil] | Total Spores t = 47 days (listed as phosphite) | Total Spores t = 0 days [Aa Per 100 g soil] | spore numbers compared with the control
OP(O)O [PO3, dipotassium phosphite] | 17896 | 17,896 Per 100 g soil | 6429 | significant increase in spore numbers from the control
O=P([O-])([O-])O.[K+].[K+] [PO4, dipotassium phosphate] | 12960 |  | 4998 | significant increase in spore numbers from the control
